Laboratory results as given in PMC7404270, “Biological Activities of Cyclic and Acyclic B-Type Laxaphycins in SH-SY5Y Human Neuroblastoma Cells” (Marine Drugs, 2020).

Legend:
[1] = tested on: SH-SY5Y human neuroblastoma cells; test: Mitochondrial membrane potential (TMRM dye); type: cell-based; settings: 24 h, 0.001–10 µM
Protocol: ∆Ψm was evaluated with TMRM assay as previously described. SH-SY5Y cells were seeded in 96-well plates at 5 × 10^4 cells per well. After 24 h, cells were treated with compounds (0.001–10 µM) for 24 h. Next, cells were washed twice with saline solution and incubated with 1 µM TMRM for 30 min. Then human neuroblastoma cells were solubilized with 50% DMSO–50% water. Fluorescence values were measured at 535 nm excitation, 590 nm emission with a plate reader. At least three independent replicates were performed in triplicate.

[2] = tested on: SH-SY5Y human neuroblastoma cells; test: MTT cell metabolic activity assay; type: cell-based; settings: 24 h, 0.001–10 µM
Protocol: (§1) SH-SY5Y human neuroblastoma cell line was obtained from American Type Culture Collection (ATCC), number CRL2266. Cells were cultured in Dulbecco´s modified Eagle´s medium: Nutrient Mix F-12 (DMEM/F-12) with 10% fetal bovine serum (FBS), 1% glutamax, 100 U/mL penicillin and 100 µg/mL streptomycin. Cells were maintained at 37 °C in a humidified atmosphere of 5% CO2 and 95% air and dissociated weekly using 0.05% trypsin/EDTA. All the reagents were obtained from Thermo Fischer Scientific.
The effect of laxaphycins on cell metabolic activity was evaluated by MTT (3-(4, 5-dimethyl thiazol-2-yl)-2, 5-diphenyl tetrazolium bromide) assay. SH-SY5Y cells were cultured in 96-well plates and treated with compounds at concentrations ranging from 0.001 to 10 µM for 24 h. Next, cells were rinsed three times and incubated for 1 h with MTT (500 µg/mL) dissolved in saline buffer. MTT excess was washed and cells were disaggregated with 5% sodium dodecyl sulfate. Absorbance of the colored formazan salt was measured at 595 nm in a spectrophotometer plate reader. Cell death control signal was subtracted from the other data.

beclin 1 = test: Western blot, beclin 1 expression; type: cell-based, human; settings: SH-SY5Y cells, 24 h; Rap 0.1 µM
Protocol: (§2) SH-SY5Y cells were seeded in 12-well plates and treated with laxaphycins for 24 h. Next, cells were washed with PBS and lysis buffer (50mM Tris HCl, 150 mM NaCl, 1mM EDTA and 1% Triton x-100, supplemented with a complete phosphatase/protease inhibitor cocktail) was added to each well. Cells were scrapped, sonicated and centrifuged at 13,000 rpm at 4 °C for 20 min.
(§3) In both cases, the supernatant was collected as the cytosolic fraction and quantified with the Bradford method. Samples containing 15 µg were used for electrophoresis, resolved in 4–20% sodium dodecyl sulphate polyacrylamide gel (Biorad, Madrid, Spain). Proteins were transferred to PVDF membranes (Merck Millipore) with a Trans-Blot® semi-dry transfer cell (Biorad). Membrane blocking and antibody incubation was performed in Snap i.d. system (Merck Millipore). Protein bands were detected with Supersignal West Pico Luminiscent Substrate and Supersignal West Femto Maximum Sensitivity Substrate (Thermo Fisher Scientific). Chemiluminiscence was determined with Diversity GeneSnap system and software (Syngene). LC3 II/I was detected with the primary antibody anti-LC3 II/I (1:1000, Abcam), the primary antibody anti-pmTOR (Ser2448) (1:1000, Merck Millipore) was used to recognize phospho-mTOR and the total levels of the kinase were determined with anti-mTOR antibody (1:10000, Abcam), beclin-1 was detected with anti-beclin-1 primary antibody (1:1000, Merck Millipore), p62 was quantified with anti-p62 antibody (1:1000, Merck Millipore), anti-phospho-p70 S6 kinase (Thr389) (1:1000, Merck Millipore) was used to detect phospho- p70 and the total levels were quantified using anti-p70 S6 kinase antibody (1:1000, Merck Millipore), anti-phospho-AMPK (Thr172) (1:500, Merck Millipore) was used to recognize the phosphorylated state of the kinase, and the total expression of the enzyme was detected with anti-AMPK antibody (1:500, Merck Millipore). Protein levels were normalized using β-Actin (1:20,000, Millipore). Baf A1 (0.001 µM), Rap (0.1 µM) and Comp C (1 µM) were used as controls for autophagic flux measurements. All the experiments were performed at least three times in duplicate.

[3] = tested on: SH-SY5Y human neuroblastoma cells; test: Reactive oxygen species levels (carboxy-H2DCFDA); type: cell-based; settings: 24 h, 0.001–10 µM
Protocol: ROS production was assessed with the fluorescence dye carboxy-H2DCFDA (5-(and-6)-carboxy-2′,7′-dichlorodihydrofluorescein diacetate). SH-SY5Y cells were seeded in 96-well plates and allowed to grow for 24 h. Then, cells were treated with laxaphycins (0.001–10 µM) for 24 h and ROS levels were measured. SH-SY5Y cells were washed twice with serum-free medium and loaded with 20 µM carboxy-H2DCFDA. Next, the plate was incubated for 1 h at 37 °C. After this time, phosphate buffered saline (PBS) was added to each well during 30 min. The fluorescence was read at 495 nm excitation and 527 nm emission. Experiments were carried out at least three times.

[4] = tested on: SH-SY5Y human neuroblastoma cells; test: LDH cytotoxicity assay (cell viability); type: cell-based; settings: 24 h, 0.001–10 µM
Protocol: as §1
Cell viability was assessed with the LDH test. Cells were seeded in 96-well plates and exposed to different compound concentrations (0.001–10 µM). Cells were incubated with compounds at 37 °C in humidified 5% CO2/95% air atmosphere for 24 h. Quillaja bark saponin was used as cellular death control. Then, cell medium was collected and LDH release was evaluated. Pierce^TM LDH-Cytotoxicity Assay Kit (Thermo Fisher Scientific) was used for LDH determination. Absorbance was measured at 490 nm to determine LDH release to the medium. Experiments were carried out in triplicate at least three independent times.

[5] = tested on: SH-SY5Y human neuroblastoma cells; test: ATP levels (Luminescent ATP Detection Kit); type: cell-based; settings: 0.001–10 µM; for ATP levels at 6 h, in words: 6 h incubation; for ATP levels at 24 h, in words: 24 h incubation
Protocol: ATP levels were determined with the Luminescent ATP Detection Kit (Abcam), following manufacturer´s instructions. Briefly, human neuroblastoma cells were cultured in 96-well plates at 5 × 10^4 cells per well. Cells were treated with compounds as described above during 6 and 24 h, Then, cells were lysed and 50 µL of substrate solution were added to each well. The plate was incubated for 5 min, and the luminescence was measured in a plate reader. Rot at 1 µM was used as positive control.

LC3 = test: Western blot, LC3II/I ratio; type: cell-based, human; settings: SH-SY5Y cells, 24 h; Baf A1 0.001 µM, Rap 0.1 µM
Protocol: as §2
(§4) In both cases, the supernatant was collected as the cytosolic fraction and quantified with the Bradford method. Samples containing 15 µg were used for electrophoresis, resolved in 4–20% sodium dodecyl sulphate polyacrylamide gel (Biorad, Madrid, Spain). Proteins were transferred to PVDF membranes (Merck Millipore) with a Trans-Blot® semi-dry transfer cell (Biorad). Membrane blocking and antibody incubation was performed in Snap i.d. system (Merck Millipore). Protein bands were detected with Supersignal West Pico Luminiscent Substrate and Supersignal West Femto Maximum Sensitivity Substrate (Thermo Fisher Scientific). Chemiluminiscence was determined with Diversity GeneSnap system and software (Syngene). […]

AMPK = test: Western blot, AMPK activation (phosphorylated/total); type: cell-based, human; settings: SH-SY5Y cells, 24 h; Comp C 1 µM
Protocol: as §2, §4

p70 S6 kinase = test: Western blot, p70 S6 kinase activation (phosphorylated/total); type: cell-based, human; settings: SH-SY5Y cells, 24 h; one range given for the three compounds together
Protocol: as §2
as §3, with “All the experiments were performed at least three times in duplicate.” left out

[6] = tested on: SH-SY5Y human neuroblastoma cells; test: Annexin V-FITC / propidium iodide flow cytometry; type: cell-based; settings: 24 h, 1 at 0.3 µM, 2 at 0.15 µM, STS at 0.01 µM, percentage of total cells, mean ± SEM of three experiments
Protocol: The Annexin V-FITC Apoptosis Detection Kit was used to determine the cell death produced by compounds as previously described. SH-SY5Y cells were seeded in 12-well plates at 1 × 10^6 per well and incubated for 24 h with laxaphycins. Then, cells were washed with PBS and resuspended in Annexin binding buffer containing Annexin V-FITC and PI. Cells were incubated for 15 min at room temperature, resuspended in PBS and filtered. The fluorescence was determined by flow cytometry using the ImageStreamMKII (Amnis Corporation, Luminex Corp, Austin, TX, USA). 10,000 events were analyzed with IDEAS Application 6.0 software (Amnis Corporation, Luminex Corp, Austin, TX, USA). STS (Sigma Aldrich) at 0.01 µM was used as control in this assay.

caspase 3 = test: Caspase 3 activity in cell lysates (EnzCheck kit); type: cell-based, human; settings: SH-SY5Y cells, 24 h; STS 0.01 µM; percentage of control cells, mean ± SEM
Protocol: The detection of caspase 3 activity was carried out with the EnzCheck® Caspase-3 Assay Kit. Neuroblastoma cells were cultured in 12-well plates at 1 × 10^6 cells per well and treated with compounds. After 24 h, cells were lysed and an aliquot was collected to quantify protein concentration by the Bradford method. Then, the assay was performed following manufacturer’s instructions. Briefly, 50 µL of each sample were mixed with equal volume of Z-DEVD-AMC substrate and incubated for 30 min at room temperature. Then, fluorescence at 342 nm excitation and 441 nm emission was measured. Caspase 3 activity data were corrected by protein concentration values. STS (0.01 µM) was used as positive control.

mTOR = test: Western blot, mTOR activation (phosphorylated/total); type: cell-based, human; settings: SH-SY5Y cells, 24 h; Rap 0.1 µM
Protocol: as §2
as §3, with “All the experiments were performed at least three times in duplicate.” left out

Row | Compound | Mitochondrial membrane potential (∆Ψm, TMRM), in words [1] | Beclin 1 expression, in words (beclin 1) | ROS levels (carboxy-H2DCFDA), in words [3] | Cytotoxicity / cell viability (LDH test), in words [4] | ATP levels at 6 h, in words [5] | ATP levels at 24 h, in words [5] | other results
1 | acyclolaxaphycin B [compound 3] | produced a decrease in ∆Ψm | generated an increase in beclin1 expression | reduced ROS and ATP levels at the highest concentrations | did not display cytotoxicity at any of the concentrations tested | reduction in ATP was observed at 6 h | recovered at 24 h, reaching levels of control cells | Cell metabolic activity (MTT), in words [2]: significantly augmented cell metabolic activity at 0.1 and 1 µM
2 | CO/C1=C\C(C)=C\[C@@H](C)[C@@H](O)[C@@H](C)C/C(C)=C/C=C/[C@H](OC)[C@@H]([C@@H](C)[C@@H](O)[C@H](C)[C@@]2(O)C[C@@H](O)[C@H](C)[C@@H](C(C)C)O2)OC1=O [Baf A1, Bafilomycin A1] | – | – | – | – | – | – | LC3II/I ratio, in words (LC3): increased LC3II/I ratio
3 | [des-(Ala^4-Hle^5)] acyclolaxaphycin B3 [compound 6] | – | generated an increase in beclin1 expression | decreased ROS release | did not show effects on cell survival | reduced ATP content at 6 h | recovering it after 24 h | AMPK activation (phospho/total), in words (AMPK): the most active; p70 S6 phosphorylation (p70 S6 kinase): 53.5%–78.6%
4 | acyclolaxaphycin B3 [compound 4] | depolarizing the mitochondrial membrane at 10 µM | generated an increase in beclin1 expression | diminishing ROS release | did not display cytotoxicity at any of the concentrations tested | diminishing ROS release and ATP levels at 6 h | – | p70 S6 phosphorylation (p70 S6 kinase): 53.5%–78.6%
5 | [des-(Ala^4-Hle^5)] acyclolaxaphycin B [compound 5] | depolarized the mitochondria | generated an increase in beclin1 expression | reduced ROS levels at the highest concentrations | did not show effects on cell survival | levels were reduced by 5 after a 6 h incubation | recovered at 24 h | Cell metabolic activity (MTT), in words [2]: increased cell metabolic activity
6 | c1cc(-c2cnn3cc(-c4ccc(OCCN5CCCCC5)cc4)cnc23)ccn1 [Comp C, compound C, reference compound] | – | – | – | – | – | – | AMPK activation (phospho/total), in words (AMPK): inhibited kinase activity
7 | CN[C@@H]1C[C@H]2O[C@@](C)([C@@H]1OC)n1c3ccccc3c3c4c(c5c6ccccc6n2c5c31)C(=O)NC4 [STS, staurosporine, reference compound] | – | – | – | – | – | – | Apoptotic cells (early and late, Annexin V positive) [6]: 63.3% ± 3.2%; Caspase 3 activity (caspase 3): 157.8% ± 6%
8 | CO[C@H]1C[C@@H]2CC[C@@H](C)[C@@](O)(O2)C(=O)C(=O)N2CCCC[C@H]2C(=O)O[C@H]([C@H](C)C[C@@H]2CC[C@@H](O)[C@H](OC)C2)CC(=O)[C@H](C)/C=C(\C)[C@@H](O)[C@@H](OC)C(=O)[C@H](C)C[C@H](C)/C=C/C=C/C=C/1C [Rap, rapamycin, reference compound] | – | augmented its expression | – | – | – | – | mTOR activation (phospho/total), in words (mTOR): reduced mTOR activation; LC3II/I ratio, in words (LC3): increased LC3II/I ratio
